Measurements published in US20050014835A1, “Agents for Treating Diseases Caused by Nonsense Mutations” (priority 2001, published 2005).

What was measured:
dystrophin [1] = assay: Immunoblotting of dystrophin in cultured mdx-sk myotubes; assay type: cell-based, mdx mouse; conditions: 100 μg/ml, seven days
Description: (§1) The SV40T immortalized mdx satellite cell line, mdx-sk, was newly established from the mdx mouse to test the dystrophin restoring level in cultured mdx skeletal muscle cells. The mdx-sk line was established by introducing a retroviral vector carrying a cDNA for the temperature-sensitive form of the Simian Virus 40 large T antigen (a kind gift from Dr. Drinkwater) to a primary culture of mdx myoblasts obtained from the mdx mice. The retrovirus was produced using the packaging cell line, Plat-E, as previously described (Morita, S., Kojima, T., Kitamura, T. (2000) Plat-E: an efficient andstable system for transient packaging of retroviruses. Gene Therapy 7, 1063-1066). The cell line was cultured and maintained in Dulbecco's Modified Eagle Medium (DMEM)-high glucose (4,500 mg/l) supplemented with 20% fetal calf serum at 32.5° C. in a CO2 incubator. To induce muscle differentiation, the culture medium was changed to a differentiation medium (10% horse serum in Eagle MEM) and the culture temperature was shifted to 39.5° C.
After induction of differentiation, the cells were cultured, and NM (50 μg/ml (2.0×10^−4 mol/kg) or 100 μg/ml (4.0×10^−4 mol/kg) in a differentiation medium solution) was added to the culture. Then, the cells were allowed to differentiate by culturing in the medium without an antibiotic for seven days. […]

dystrophin [2] = assay: Immunofluorescence staining of dystrophin in cultured mdx-sk myotubes; assay type: cell-based, mdx mouse; conditions: 50 μg/ml, seven days
Description: as §1, with “39.5° C. […]” for “39.5° C.”
In order to examine whether NM can restore dystrophin expression in the mdx-sk cells established as described above, NM was added at a concentration of 50 μg/ml or 100 μg/ml to a differentiation medium of myotubes cultured for seven days, and then culture was continued for another seven days. […] The cells were then observed under a fluorescence microscope.

dystrophin [3] = assay: Immunofluorescence staining of dystrophin in TA muscle of drug-treated mdx mice; assay type: in vivo
Description: (§2) Mdx mice were used as a dystrophy mouse model. NM was dissolved in PBS and Millipore-filtered just before injection, in order to avoid degradation during storage in solution. Mdx mice (male, seven week-old, six for each dose) were injected subcutaneously with an NM solution (137 mM NaCl, 2.68 mM KCl, 8.10 mM […], and 1.47 mM KH2PO4) prepared using PBS, at half the concentration (1.2×10^−5 mol/kg) of the solution in the GM experiment by Barton-Davis et al. (Barton-Davis, E. R., Cordiner, L. Shoturma, D. I., Leiland, S. E., Sweeney, H. L. (1999) Aminoglycoside antibiotics restore dystrophin function to skeletal muscles of mdx mice. J. Clin. Invest. 104, 375-381) every day for two weeks. Control mdx mice (n=6) and C57BL/10 (B10, n=6) mice were injected with PBS (0.1 ml) alone, every day for two weeks.
(§3) After injection, immunofluorescence and Evans Blue staining were performed to detect dystrophin. Immunofluoresce staining was carried out as follows using antibodies against the C-terminus of dystrophin. Animals were sacrificed using an overdose of ether gas. The tibialis anterior (TA) muscles were removed and frozen in melting isopentane for immunohistochemistry. Then, 7 μm transverse cryosections were prepared. […] After labeling with secondary antibodies, dystrophin was detected by fluorescence microscopy, based on fluorescence emission. […]

dystrophin [4] = assay: Immunoprecipitation and immunoblotting of dystrophin in muscles of NM-treated mdx mice; assay type: in vivo
Description: The left hind leg muscle (600 mg), the diaphragm (100 mg), and the cardiac muscle (100 mg) were collected from NM-treated mdx mice, NM-untreated mdx mice, and B10 mice as described above. Each of the specimens was homogenized in 15 ml of a homogenizing solution (pH 7.2) (pyrophosphate mixture, 20 mM Na4P2O7, 20 mM NaH2PO4, and 1 mM MgCl2, pH 7.1) containing 10% sucrose and 0.5 mM EDTA. The homogenization was carried out with a Teflon homogenizer at maximal speed for one minute (Mitchell, R. D., Palade, P., and Fleicher, S. (1983) Purification of morphologically intact triad structures from skeletal muscle. J. Cell Biol. 96, 1008-1016; Yoshida, M., Suzuki, A., Shimizu, T., and Ozawa, E. (1992) Proteinase-sensitive sites on isolated rabbit dystrophin. J. Biochem. 112, 433-439). The homogenate was centrifuged in an RA rotor (KUBOTA) at 9,000 rpm for 15 minutes. […]
Immunoprecipitation was performed as described by Abe et al. (Abe, M., Saitoh, O., Nakata, H., Yoda, A., and Matsuda, R. (1996) Expression of neurofilament proteins in proliferating C2C12 mouse skeletalmuscle cells. Exp. Cell Res. 229, 48-59) using muscle protein sample preparations prepared from mdx mice and B10 mice as described above. […] After boiling, the supernatant was collected, and the protein concentration thereof was determined by microburette method. […]

[5] = Ototoxicity assay: hearing threshold by auditory brain stem response; assay type: in vivo, Mdx mouse; conditions: 1.2×10^−4 mol/kg daily for seven days, measured one day after final injection
Description: One day after the final injection, the hearing threshold was measured based on auditory brain stem response, according to the method of Shapiro et al. (Shapiro, S. M., Moller, A. R., Shiu, G. K. Brain-stem auditory evoked potentials in rats with high-dose pentbarbital. (1984) Electroencephalogr. Clin. Neurophysiol. 58, 266-276).

TA muscle fibers = assay: Evans Blue Dye staining of degenerating muscle fibers in drug-treated mdx mice; assay type: in vivo; conditions: 1.2×10^−5 mol/kg/day subcutaneously for two weeks, FIG. 2
Description: as §2, §3

[6] = assay type: in vivo; conditions: highest dose 1.2×10^−3 mol/kg/day (100×)
Description: In order to measure changes in body weight due to drug administration, male mdx mice (seven weeks old, four for each dose) were injected daily with NM at 1.2×10^−5 mol/kg (1× the effective dose), 1.2×10^−4 mol/kg (10×), 6.0×10^−4 mol/kg (50×), or 1.2×10^−3 mol/kg (100×) for 14 days. The body weight of each mouse was measured everyday. Other mdx mice (seven weeks old, two for each dose) were injected with GM (1.2×10^−3 mol/kg [100×]) as a control test. Body weight was also measured every day.

| Molecule | dystrophin (427 kDa) band by immunoblotting (dystrophin [1]) | dystrophin expression by immunofluorescence staining (dystrophin [2]) | percentage of dystrophin-positive TA muscle fibers (dystrophin [3]; 1.2×10^−5 mol/kg/day subcutaneously for two weeks, FIG. 2) | dystrophin-positive fibers by immunofluorescence staining (dystrophin [3]; TA muscle, 1.2×10^−5 mol/kg subcutaneously every day for two weeks) | dystrophin expression level restored, relative to normal B10 hind leg muscle (dystrophin [4]; hind leg muscle, immunoblotting, estimated) | dystrophin bands by immunoblotting (dystrophin [4]; hind leg muscles (FIG. 3(1) G, H, I), 1.2×10^−5 mol/kg/day for two weeks, intensity lower than positive control B10) | hearing loss by auditory brain stem response [5] | percentage of fibers with increased membrane permeability (EBD-positive fibers) (TA muscle fibers) | lethality [6] |
| --- | --- | --- | --- | --- | --- | --- | --- | --- | --- |
| CN(CC(=O)O)NC(=O)C[C@H](N)C[C@@H](O)CN [NM, negamycin] | a clear band was detected at the position of 427 kDa | strong fluorescence signals were detected | higher than in GM-treated mdx mice | detected | about 10% | dystrophin bands were detected | not in NM-treated mice | lower in NM-treated mice than in GM-treated mice | not lethally toxic |
| Gentamicin [GM, reference compound] | – | – | – | – | – | – | – | – | killed all of the tested mice within four hours |
